Test results: PubChem BioAssay (NCI)
“And” between values parts separate entries of the source, which are not always exact repeats. Identical values can stand only once.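 Where inhibition never reached the appropriate level, the endpoint shown equals the highest concentration tested. Otherwise, values were interpolated linearly from a five-concentration, 48-hour dose response in 96-well plates. GI50 = concentration required for 50% inhibition of growth. TGI: concentration producing complete growth inhibition.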

What follows are compounds tested on MDA-MB-468 breast (assay: NCI tumour cell line growth inhibition, 48 h).

SMILES	GI50	TGI
CCCCOC(=O)c1c(C)[nH]c(/C=C2\N=C(c3ccc[nH]3)C=C2OC)c1C	451 nM	2020 nM
CN1CCN(Cc2ccc(NC(=O)c3cncc(C#Cc4cnc5ccc(OCCCS(C)(=O)=O)nn45)c3)cc2C(F)(F)F)CC1	684 nM	1680 nM
CCc1ccc(SC2c3ccc(N(CC)CC)cc3Oc3nc(N)c(C#N)c(N)c32)cc1 (stereo unspecified)	1580 nM	3060 nM
Fc1ccc(Nc2nc3nonc3nc2Nc2ccc(I)cc2)cc1	251 nM	790 nM
COc1cc(C2CC(c3cccc(Nc4ccnc5cc(Cl)ccc45)c3)=NN2c2ccccc2)cc(OC)c1OC (stereo unspecified)	20100 nM	> 100000 nM
Nc1n[nH]c2ccc([C@@H]3Nc4ccc5cn[nH]c5c4[C@H]4C5CCC(C5)[C@@H]34)cc12 (stereo partly specified)	330 nM	5040 nM
CC(=O)ON=C1C=CC(=C(C#N)c2ccccc2)C=C1	420 nM	12500 nM
CN1CCN(Cc2ccc(NC(=O)c3cncc(C#Cc4cnc5ccc(N)nn45)c3)cc2C(F)(F)F)CC1	852 nM	3240 nM
CC[C@@H](C)/C=C(C)/C=C/C(=O)c1c(O)c(-c2ccc(O)cc2)cn(OC2CC(=O)CCC(C)OC(=O)CC2O)c1=O (stereo partly specified)	239 nM	852 nM
CCN1C(=O)N(CC)C2SC(N/N=C/c3cccs3)=NC21 (stereo unspecified)	253 nM	16600 nM
CC(=O)Nc1cc2c3c(cccc3c1)-c1ccccc1-2	37400 nM	> 100000 nM
O=C1c2ccc3c4c(ccc(c24)C(=O)N1CCNCc1ccccc1)C(=O)N(CCNCc1ccccc1)C3=O	1590 nM	3100 nM
O=C(Nc1cccc(-n2cc(-c3ccncc3)c(-c3ccc(Cl)c(O)c3)n2)c1)Nc1ccc(Cl)c(Cl)c1	729 nM	4250 nM
Cc1cnc(-c2ccc(-c3ccc(NC(=O)Nc4c(F)cc(F)cc4F)cc3F)c3c2C(=O)NC3)[nH]1	1480 nM	3860 nM
CCCCCCCCCCCCCCCCCCOc1ccccc1COP(=O)(O)OOCC[N+](C)(C)C	493 nM	1470 nM
CN1CCN(CCC=C2c3ccccc3Sc3ccc(S(=O)(=O)N(C)C)cc32)CC1	1380 nM and 1530 nM	2970 nM and 4260 nM
CCCCCCCCCCCCCCCCCC[S+](C)CC (stereo unspecified)	527 nM	2660 nM
COc1cc(N(CCCl)CCCl)ccc1/C=N\NC(=O)c1cccnc1	1280 nM	6830 nM
CN(C)C1CN(C(=O)c2cc(-c3ccc4ncnc(N5CCc6cc(F)c(Cl)cc65)c4c3)cnc2N)C1	254 nM	1070 nM
COc1cc(C(=O)NN=C2c3ccccc3-c3ccccc32)cc(OC)c1OC	3470 nM	41900 nM
COC(=O)c1c2c(c(C)[n+]([O-])c1C)C(=O)C(NCc1ccc(O)cc1)=CC2=O	402 nM	1740 nM
CC[C@@]1(O)C(=O)OCc2c1cc1n(c2=O)Cc2c-1nc1cc(F)c(C)c3c1c2[C@@H](NC(=O)CO)CC3	< 10 nM	< 10 nM
CCN(CC)CC(O)c1cc(-c2ccc(Cl)cc2)nc2c(C)c(Cl)ccc12 (stereo unspecified)	1890 nM	3420 nM
